Common to all, as to experiment: cells
What all share (parameters): species or system panel of 482 human cancer cell lines; ATPLite luminescence growth inhibition after treatment, nine-point dilution curve, 482 cancer cell lines, 384-well
Holding throughout (details): 72 h, recommended growth medium
(In general: Cellular ATP, detected with luciferase, serves as a proxy for viable cell number.)

For one test, the system named is SKNDZ_AUTONOMIC_GANGLIA. How it is done: (§1) Cells were seeded in recommended growth media in black 384-well tissue culture treated plates at 500 cells per well. Cells were equilibrated in assay plates via centrifugation and placed in incubators for 24 h before treatment. […] Treated assay plates were incubated with compounds for 72 h and subsequently were developed for endpoint analysis using ATPLite. Each compound was assessed using a nine-point dilution curve. Cells were defined as sensitive to a given compound based on GI75 < 2 μM with manual quality control of curve fit. GI75 is defined as a drug concentration that causes a 75% reduction in assay readout relative to dimethyl sulfoxide (DMSO)-treated controls. To identify novel cancer vulnerabilities, we screened a panel of 482 cell lines with a diverse set of metabolic inhibitors. […] Given that SCLC is thought to arise from neuroendocrine cells in the lung[9], we tested the NB-598 sensitivity in a panel of 42 SCLC cell lines. We calculated a quantitative metric of sensitivity for each cell line based on the area under the curve (AUC) of the mu/mu.max curve to more accurately capture the potency and extent of NB-598 effects. […] We categorized the SCLC cell lines as sensitive (5/42), moderate (11/42), and insensitive (26/42) (Fig. 1c and Supplementary Data 2) and focused all subsequent efforts on this indication. […] To further understand the patterns of sensitivity, we conducted RNA sequencing (RNA-Seq; Supplementary Data 3) and proteomic (Supplementary Data 4) characterization of the SCLC panel to identify unbiased expression signatures associated with enhanced NB-598 response (Supplementary Fig. 1 and Supplementary Fig. 2). Given the growing understanding that SCLC tumors can be further subdivided based on the status of lineage-defining transcription factors, ASLC1 and NEUROD1, we specifically investigated NB-598 response as the function of ASCL1 and NEUROD1 expression levels. […] To further dissect the NB-598 response within the ASCL1-high/NEUROD-low subset of 25 cell lines, we identified RNA-Seq and proteomics expression signatures associated with NB

Another test has as its system FARAGE_NS. As to the method: as §1
Test [1] relates to KMS34_HAEMATOPOIETIC_AND_LYMPHOID_TISSUE. As to the method: as §1
For a further test, the system named is HCC1500_BREAST. How it is done:
as §1

A further test concerns KYSE510_OESOPHAGUS
As to the method:
as §1

The test system of test [2] is OCILY8_HAEMATOPOIETIC_AND_LYMPHOID_TISSUE. How it is done:
as §1

In the next test the test system is NCIH1155_LUNG. How it is done:
as §1

The subject of another test is HEC1A_ENDOMETRIUM
As to the method:
as §1

For test [3], the system named is HTK_HAEMATOPOIETIC_AND_LYMPHOID_TISSUE. As to the method: as §1
The subject of test [4] is OCILY3_HAEMATOPOIETIC_AND_LYMPHOID_TISSUE. As to the method:
as §1

The subject of the next test is NCIN87_STOMACH. How it is done:
as §1

The subject of test [5] is HUNS1_HAEMATOPOIETIC_AND_LYMPHOID_TISSUE. How it is done:
as §1

The test system of a further test is NCIH2126_LUNG. As to the method: as §1
The test system of another test is DU4475_BREAST. How it is done:
as §1

The next test concerns HCT8_LARGE_INTESTINE
As to the method:
as §1

For another test, the system named is LU24_LUNG. How it is done:
as §1

For a further test, the system named is NCIH1435_LUNG. How it is done:
as §1

What is called GI50 is the concentration giving 50% growth inhibition. As for `CCN(C/C=C/C#CC(C)(C)C)Cc1cccc(OCc2cc(-c3ccsc3)cs2)c1` [NB-598], the concentration for 50% growth inhibition (GI50) was 12 nM with SKNDZ_AUTONOMIC_GANGLIA; 14.2 nM in the test with FARAGE_NS; 2070 nM in [1]; 1480 nM in the test with HCC1500_BREAST; 73.1 nM in the test on KYSE510_OESOPHAGUS; 9.19 µM in [2]. Besides, the GI50 in the test with NCIH1155_LUNG was 5.17 nM; in the test on HEC1A_ENDOMETRIUM it was 12.6 µM; in [3], 4.77 µM; in [4] it was 91.1 nM; with NCIN87_STOMACH, 9.65 µM; in test [5], 170 nM. The GI50 was 144 nM with NCIH2126_LUNG; 61.7 nM with DU4475_BREAST; 10.7 µM in the test on HCT8_LARGE_INTESTINE; 6.57 µM with LU24_LUNG; 3.11 nM in the test with NCIH1435_LUNG.

The record behind these values is article PMC6327044, “A chemical biology screen identifies a vulnerability of neuroendocrine cancer cells to SQLE inhibition” (Nature Communications, 2019).
